Source: patent US20090203753A1, “7-(2-amino-1-hydroxy-ethyl)-4-hydroxybenzothiazol-2(3H)-one-derivatives as beta2 adrenoreceptor agonists” (AstraZeneca AB, priority 2005, published 2009)
Counter-ions that a name gives are not always drawn.

Columns and labels:
β2 receptor [1] = biological target: T1, β2 receptor (Homo sapiens, UniProt P07550); test: β2 mediated cAMP production in H292 cells, AlphaScreen cAMP detection (10 minutes with test compound); assay type: cell-based; conditions: for EC50: cAMP, 10 minutes incubation with compound, 300 μM rolipram; for Intrinsic Activity: fraction relative to the maximum activity determined for formoterol, 10 minutes incubation
T1 construct: endogenous in cells; host or cells: H292 cells
T1 sequence (P07550 whole entry): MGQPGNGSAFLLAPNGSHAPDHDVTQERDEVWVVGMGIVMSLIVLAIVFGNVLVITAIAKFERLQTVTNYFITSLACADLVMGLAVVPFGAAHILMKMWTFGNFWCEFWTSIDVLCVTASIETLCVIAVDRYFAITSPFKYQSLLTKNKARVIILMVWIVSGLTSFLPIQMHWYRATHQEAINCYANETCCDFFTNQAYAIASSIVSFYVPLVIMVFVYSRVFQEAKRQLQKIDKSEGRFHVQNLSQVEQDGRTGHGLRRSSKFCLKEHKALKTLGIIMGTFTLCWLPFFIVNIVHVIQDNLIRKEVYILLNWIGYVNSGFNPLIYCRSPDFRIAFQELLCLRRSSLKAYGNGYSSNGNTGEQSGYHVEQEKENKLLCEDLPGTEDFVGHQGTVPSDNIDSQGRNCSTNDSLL
Procedure: H292 cells were grown in RPMI (Roswell Park Memorial Institute) medium containing, 10% (v/v) FBS (foetal bovine serum) and 2 mM L-glutamine. Cells were grown in 225 cm2 flasks containing 25 mL media in a humidified incubator at 37° C., 5% CO2. Cells were harvested from the flask and passaged at a 1 in 10 dilution once per week.
The media from flasks containing H292 cells was removed, rinsed with 10 mL PBS (phosphate buffered saline) and replaced with 10 mL Accutase™ cell detachment solution. Flasks were incubated for 15 minutes in a humidified incubator at 37° C., 5% CO2. The cell suspension was counted and the cells re-suspended in RPMI media (containing 10% (v/v) FBS and 2 mM L-glutamine) at 0.05×10^6 cells per mL. 5000 cells in 100 μL were added to each well of a tissue-culture-treated 96-well plate and the cells incubated overnight in a humidified incubator at 37° C., 5% CO2. The culture media was removed, washed twice with 100 μL assay buffer and replaced with 50 μL assay buffer. Cells were rested at room temperature for 20 minutes after which time 25 μL of rolipram (1.2 mM made up in assay buffer containing 2.4% (v/v) dimethylsulphoxide) was added. Cells were incubated with rolipram for 10 minutes after which time test compounds (made up as ×4 concentrated stocks in assay buffer containing 4% (v/v) dimethylsulphoxide) were added and the cells were incubated for 10 minutes at room temperature. Final rolipram concentration in the assay was 300 μM and final vehicle concentration was 1.6% (v/v) dimethylsulphoxide. The reaction was stopped by removing supernatants, washing once with 100 μL assay buffer and replacing with 50 μL lysis buffer. The cell monolayer was frozen at −80° C. for 30 minutes (or overnight).
(§1) The concentration of cAMP (cyclic adenosine monophosphate) in the cell lysate was determined using the AlphaScreen™ methodology. The frozen cell plate was thawed for 20 minutes on a plate shaker then 10 μL of the cell lysate was transferred to a 96-well white plate. 40 μL of mixed AlphaScreen™ detection beads (containing equal volumes of donor beads (pre-incubated with biotinylated cAMP in the dark for 30 minutes) and acceptor beads), was added to each well and the plate incubated at room temperature for 10 hours in the dark. The AlphaScreen™ signal was measured using an EnVision spectrophotometer (Perkin-Elmer Inc.) with the recommended manufacturer's settings. cAMP concentrations were determined by reference to a calibration curve determined in the same experiment using standard cAMP concentrations (made up in lysis buffer in a 96-well tissue-culture-treated plate and frozen/thawed alongside the test samples) and detected using the same protocol. Concentration response curves for agonists were constructed to determine both the pEC50 and Intrinsic Activity.

β2 receptor [2] = biological target: T1, β2 receptor; test: Alternative adrenergic β2 mediated cAMP production in H292 cells (60 minutes with test compound); assay type: cell-based; conditions: for EC50: cAMP, 60 minutes incubation with compound, 300 μM rolipram, read-out: β2 pEC50 (converted); for β2 Int Act: fraction relative to the maximum activity determined for formoterol, 60 minutes incubation
Procedure: Alternative Adrenergic (β2 Mediated cAMP Production
H292 cells were grown in 225 cm2 flasks incubator at 37° C., 5% CO2 in RPMI medium containing, 10% (v/v) FBS (foetal bovine serum) and 2 mM L-glutamine.
Adherent H292 cells were removed from tissue culture flasks by treatment with Accutase™ cell detachment solution for 15 minutes. Flasks were incubated for 15 minutes in a humidified incubator at 37° C., 5% CO2. Detached cells were re-suspended in RPMI media (containing 10% (v/v) FBS and 2 mM L-glutamine) at 0.05×10^6 cells per mL. 5000 cells in 100 μL were added to each well of a tissue-culture-treated 96-well plate and the cells incubated overnight in a humidified incubator at 37° C., 5% CO2. The culture media was removed and cells were washed twice with 100 μL assay buffer and replaced with 50 μL assay buffer (HBSS solution containing 10 mM HEPES pH7.4 and 5 mM glucose). Cells were rested at room temperature for 20 minutes after which time 25 μL of rolipram (1.2 mM made up in assay buffer containing 2.4% (v/v) dimethylsulphoxide) was added. Cells were incubated with rolipram for 10 minutes after which time test compounds were added and the cells were incubated for 60 minutes at room temperature. The final rolipram concentration in the assay was 300 μM and final vehicle concentration was 1.6% (v/v) dimethylsulphoxide. The reaction was stopped by removing supernatants, washing once with 100 μL assay buffer and replacing with 50 μL lysis buffer. The cell monolayer was frozen at −80° C. for 30 minutes (or overnight).
as §1, with “using” for “using the”, “pre-incubated” for “(containing equal volumes of donor beads (pre-incubated”, “cAMP,” for “cAMP in the dark for 30 minutes) and acceptor beads),”, “concentrations.” for “concentrations (made up in lysis buffer in a 96-well tissue-culture-treated plate and frozen/thawed alongside the test samples) and detected using the same protocol.”, “constructed and data was fitted to a four parameter logistic equation” for “constructed”, “Activity. […]” for “Activity.”

[3] = biological target: T2, recombinant human α1D receptor (Homo sapiens, UniProt P25100); test: Adrenergic α1D selectivity assay, [3H]-prazosin binding to HEK293 membranes; conditions: read-out: α1 bind pIC50 (converted)
T2 construct: expressed in transfected cells; host or cells: HEK293
T2 sequence (P25100 1-572): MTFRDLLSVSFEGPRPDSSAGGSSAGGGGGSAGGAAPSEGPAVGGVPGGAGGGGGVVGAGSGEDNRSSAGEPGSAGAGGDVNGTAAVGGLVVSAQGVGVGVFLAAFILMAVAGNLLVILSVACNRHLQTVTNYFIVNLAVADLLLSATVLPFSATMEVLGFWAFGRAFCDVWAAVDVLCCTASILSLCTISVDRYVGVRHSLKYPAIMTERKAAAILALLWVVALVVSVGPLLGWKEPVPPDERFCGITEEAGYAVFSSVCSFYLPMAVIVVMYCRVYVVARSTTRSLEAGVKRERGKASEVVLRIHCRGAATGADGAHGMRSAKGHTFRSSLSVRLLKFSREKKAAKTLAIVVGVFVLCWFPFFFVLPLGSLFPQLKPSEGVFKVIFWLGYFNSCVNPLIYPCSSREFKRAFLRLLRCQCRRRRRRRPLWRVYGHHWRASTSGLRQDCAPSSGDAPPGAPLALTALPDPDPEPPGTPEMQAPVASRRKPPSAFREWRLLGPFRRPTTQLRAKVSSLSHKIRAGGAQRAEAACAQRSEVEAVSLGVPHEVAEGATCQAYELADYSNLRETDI
Procedure: Membranes were prepared from human embryonic kidney 293 (HEK293) cells expressing recombinant human α1D receptor. These were diluted in Assay Buffer (50 mM HEPES, 1 mM EDTA, 0.1% gelatin, pH 7.4) to provide a final concentration of membranes that gave a clear window between maximum and minimum specific binding.
(§2) Assays were performed in U-bottomed 96-well polypropylene plates. 10 μL [^3H]-prazosin (0.3 nM final concentration) and 10 μL of test compound (10× final concentration) were added to each test well. For each assay plate 8 replicates were obtained for [^3H]-prazosin binding in the presence of 10 μL vehicle (10% (v/v) DMSO in Assay Buffer; defining maximum binding) or 10 μL BMY7378 (10 μM final concentration; defining non-specific binding (NSB)). Membranes were then added to achieve a final volume of 100 μL. The plates were incubated for 2 hours at room temperature and then filtered onto PEI coated GF/B filter plates, pre-soaked for 1 hour in Assay Buffer, using a 96-well plate Tomtec cell harvester. Five washes with 250 μL wash buffer (50 mM HEPES, 1 mM EDTA, pH 7.4) were performed at 4° C. to remove unbound radioactivity. The plates were dried then sealed from underneath using Packard plate sealers and MicroScint-O (50 μL) was added to each well. The plates were sealed (TopSeal A) and filter-bound radioactivity was measured with a scintillation counter (TopCount, Packard BioScience) using a 3-minute counting protocol.
(§3) Total specific binding (B0) was determined by subtracting the mean NSB from the mean maximum binding. NSB values were also subtracted from values from all other wells.

[4] = biological target: T3, recombinant human adrenergic beta 1 receptors (Homo sapiens, UniProt P08588); test: Adrenergic β1 selectivity assay, [125I]-Iodocyanopindolol binding to membranes; conditions: inhibition of [125I]-Iodocyanopindolol binding (0.036 nM); read-out: β1 bind pIC50 (converted)
T3 construct: purchased Euroscreen
T3 sequence (P08588 whole entry): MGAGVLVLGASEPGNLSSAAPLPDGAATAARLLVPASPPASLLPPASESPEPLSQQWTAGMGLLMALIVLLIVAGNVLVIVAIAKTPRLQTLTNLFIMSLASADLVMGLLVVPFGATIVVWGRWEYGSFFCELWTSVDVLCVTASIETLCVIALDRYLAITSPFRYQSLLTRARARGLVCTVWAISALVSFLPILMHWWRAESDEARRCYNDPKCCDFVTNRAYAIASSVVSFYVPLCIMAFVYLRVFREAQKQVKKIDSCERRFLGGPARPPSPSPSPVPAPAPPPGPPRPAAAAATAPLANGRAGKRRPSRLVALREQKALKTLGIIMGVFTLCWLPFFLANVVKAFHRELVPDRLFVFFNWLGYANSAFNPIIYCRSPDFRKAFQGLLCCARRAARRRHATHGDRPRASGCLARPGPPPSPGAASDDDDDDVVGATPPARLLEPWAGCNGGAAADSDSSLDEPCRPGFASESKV
Procedure: (§4) Membranes containing recombinant human adrenergic beta 1 receptors were obtained from Euroscreen. These were diluted in Assay Buffer (50 mM HEPES, 1 mM EDTA, 120 mM NaCl, 0.1% gelatin, pH 7.4) to provide a final concentration of membranes that gave a clear window between maximum and minimum specific binding.
as §2, with “[^125I]-Iodocyanopindolol (0.036” for “[^3H]-prazosin (0.3”, “[^125I]-Iodocyanopindolol” for “[^3H]-prazosin”, “Propranolol” for “BMY7378”, “EDTA, 120 mM NaCl,” for “EDTA,”
as §3

[5] = biological target: T4, recombinant human Dopamine Subtype D2s receptors (Homo sapiens, UniProt P14416); test: Dopamine D2 selectivity assay, [3H]-spiperone binding to membranes; conditions: read-out: D2 bind pIC50 (converted)
T4 construct: purchased Perkin Elmer
T4 sequence (P14416 1-414 isoform P14416-2): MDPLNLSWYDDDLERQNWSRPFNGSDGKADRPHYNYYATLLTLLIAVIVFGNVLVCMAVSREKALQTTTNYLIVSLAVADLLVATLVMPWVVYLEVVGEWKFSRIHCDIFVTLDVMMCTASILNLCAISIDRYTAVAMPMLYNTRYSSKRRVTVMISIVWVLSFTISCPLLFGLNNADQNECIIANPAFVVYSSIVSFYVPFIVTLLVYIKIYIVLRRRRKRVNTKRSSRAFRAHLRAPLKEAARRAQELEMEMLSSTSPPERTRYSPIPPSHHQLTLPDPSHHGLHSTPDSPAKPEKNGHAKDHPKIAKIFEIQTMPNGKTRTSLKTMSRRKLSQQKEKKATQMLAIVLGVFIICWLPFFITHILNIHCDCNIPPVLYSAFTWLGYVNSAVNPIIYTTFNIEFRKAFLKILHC
Procedure: as §4, with “human Dopamine Subtype D2s” for “human adrenergic beta 1”, “from Perkin Elmer.” for “from Euroscreen.”, “[…]” for “1 mM”
Assays were performed in U-bottomed 96-well polypropylene plates. 30 μL [^3H]-spiperone (0.16 nM final concentration) and 30 μL of test compound (10× final concentration) were added to each test well. For each assay plate 8 replicates were obtained for [^3H]-spiperone binding in the presence of 30 μL vehicle (10% (v/v) DMSO in Assay Buffer; defining maximum binding) or 30 μL Haloperidol (10 μM final concentration; defining non-specific binding (NSB)). Membranes were then added to achieve a final volume of 300 μL. The plates were incubated for 2 hours at room temperature and then filtered onto PEI coated GF/B filter plates, pre-soaked for 1 hour in Assay Buffer, using a 96-well plate Tomtec cell harvester. Five washes with 250 μL wash buffer (50 mM HEPES, 1 mM EDTA, 120 mM NaCl, pH 7.4) were performed at 4° C. to remove unbound radioactivity. The plates were dried then sealed from underneath using Packard plate sealers and MicroScint-O (50 μL) was added to each well. The plates were sealed (TopSeal A) and filter-bound radioactivity was measured with a scintillation counter (TopCount, Packard BioScience) using a 3-minute counting protocol.
as §3

EC50 (β2 receptor [1]) [nM]	Intrinsic Activity (β2 receptor [1])	EC50 (β2 receptor [2]) [nM]	β2 Int Act (β2 receptor [2])	IC50 [3] [nM]	IC50 [4] [nM]	IC50 [5] [nM]	SMILES
20	0.7	–	–	–	–	–	CCCCN(CCNC[C@H](O)c1ccc(OCc2ccccc2)c2[nH]c(=O)sc12)C(=O)CCOCCc1ccccc1 [Example 1, N-[2-[2-(4-Benzyloxy-2-oxo-3H-benzothiazol-7-yl)-(2R)-2-hydroxy-ethyl]aminoethyl]-N-butyl-3-phenethyloxy-propanamide]
–	–	1	0.9	2510	6.31	> 10000	CCCCN(CCNC[C@H](O)c1ccc(O)c2[nH]c(=O)sc12)C(=O)CCOCCc1ccccc1.Cl [Example 2, N-Butyl-N-(2-{[(2R)-2-hydroxy-2-(4-hydroxy-2-oxo-2,3-dihydro-1,3-benzothiazol-7-yl)ethyl]amino}ethyl)-3-(2-phenylethoxy)propanamide Hydrochloride]
1.26	1.1	1.26	0.9	–	3.16	–	O=C(CCOCCc1ccccc1)N(CCNC[C@H](O)c1ccc(O)c2[nH]c(=O)sc12)CCc1ccccc1 [Example 4, N-(2-{[(2R)-2-Hydroxy-2-(4-hydroxy-2-oxo-2,3-dihydro-1,3-benzothiazol-7-yl)ethyl]amino}ethyl)-3-(2-phenylethoxy)-N-(2-phenylethyl)propanamide]
0.316	1.0	0.2	1	–	12.6	–	CN(CCNC[C@H](O)c1ccc(O)c2[nH]c(=O)sc12)C(=O)CCOCCc1ccccc1 [Example 5, N-(2-{[(2R)-2-Hydroxy-2-(4-hydroxy-2-oxo-2,3-dihydro-1,3-benzothiazol-7-yl)ethyl]amino}ethyl)-N-methyl-3-(2-phenylethoxy)propanamide Trifluoroacetate]
–	–	2	0.9	2510	631	2510	CCN(CC)CCN(CCNC[C@H](O)c1ccc(O)c2[nH]c(=O)sc12)C(=O)CCOCCc1cccc2ccccc12 [Example 6, N-[2-(Diethylamino)ethyl]-N-(2-{[(2R)-2-hydroxy-2-(4-hydroxy-2-oxo-2,3-dihydro-1,3-benzothiazol-7-yl)ethyl]amino}ethyl)-3-[2-(1-naphthyl)ethoxy]propanamide]
